Data published in patent publication US20180363044A1, “COMPOSITIONS AND METHODS FOR IMPROVING THE THERMAL STABILITY OF NUCLEIC ACID AMPLIFICATION REAGENTS” (Roche Molecular Systems, Inc., priority 2017, published 2018).

Experiment: Stability study: heat stress storage, UPLC analysis of degradation
Format: physicochemical
Protocol: Samples containing either 1 mM deoxyadenosine triphosphate (dATP), or 1 mM deoxyadenosine tetraphosphate (dA4P) or 1 mM dATP+1 mM dA4P were suspended in a buffer containing 40% DMSO/0.75M KOAc were stored for 18 hours at either 65° C. The samples were then run in a UPLC column and analyzed for degradation of the starting products.

Compound: Nc1ncnc2c1ncn2[C@H]1C[C@H](O)[C@@H](COP(=O)(O)OP(=O)(O)OP(=O)(O)O)O1 [dATP, deoxyadenosine triphosphate]
- active substrate remaining (buffer, 18 h, 1 mM): 51%

Compound: deoxyadenosine tetraphosphate [dA4P]
- active substrate remaining (1 mM in buffer containing 40% DMSO/0.75M KOAc, stored 18 hours at 65° C., UPLC): approximately 70%
